Assays:
[1] = test system: antibody core fucosylation (antibodies that did not bind to KLH, recovered from protein A column); type: in vivo; details: 100 mM in drinking water for 14 days; non-KLH antibodies; dot blot; untreated 81%
Procedure: Female BALB/c mice were immunized with Keyhole Limpet Hemocyanin (KLH) 30-60 days prior to starting this study. For the first study, mice were dosed ip with 150 mg/kg of alkynyl fucose (SGD-1887), alkynyl fucose peracetate (SGD-1890), 2-fluorofucose (SGD-2083), or 2-fluorofucose triacetate (SGD-2084) daily for 7 days or were untreated. On day 2, mice were also boosted with KLH. On the day after the last ip dose, mice were terminally bled and serum obtained. For the second study, mice were given 100 mM of 2-fluorofucose (SGD-2083) in their drinking water or given untreated water for 7 days, boosted with KLH, and continued with 100 mM 2-fluorofucose containing drinking water or untreated water for 7 more days before being terminally bled. Serum was then obtained. No mice died in either study. For both studies, serum was passed over a commercial anti-KLH affinity column to obtain KLH-specific polyclonal antibodies. […]
Dot blots: 0.5 μg each of antibodies from untreated and treated animals, as well as standards of antibody cAC10 having known amounts of core fucosylation (0 to 100% fucose), were blotted onto a nitrocellulose membrane. […] Gel loading (visible) and fucose signals (bioluminescence) were measured with an Alpha Innotech camera and quantitated with the machine software.

[2] = test system: HL-60 acute mylogenous leukemia; test: Xenograft of pre-treated HL-60 cells (Example 7, Study 2); type: in vivo, female SCID mice; details: 20 mM in drinking water
Procedure: (§1) To further evaluate the activity of these fucose analogs, further studies were performed in vivo using tumor cells that had been pre-treated by culturing in the presence of a fucose analog, or using untreated tumor cells. Tumor cells were implanted into 10 mice per group as follows. For the LS174T, PC-3, and Caki-1 cell lines, 5×10^5 cells in 25% Matrigel were implanted subcutaneously into female nude mice. For HL-60 and Ramos cell lines, 5×10^6 cells were implanted subcutaneously into female SCID mice. For mice implanted with untreated tumor cells, mice were provided regular drinking water. For mice implanted with tumor cells pre-treated with 2-fluorofucose (SGD-2083), the mice were provided drinking water supplemented with 20 mM 2-fluorofucose (SGD-2083). For mice implanted with tumor cells pre-treated with alkylnyl fucose (SGD-1887), the mice were provided with regular drinking water.
(§2) After 3 weeks of receiving 2-fluorofucose-containing drinking water, mice were returned to regular drinking water, except for mice with Caki-1 tumors. The latter mice were returned to regular drinking water for one week. After the week of receiving regular water, mice were randomized to two groups of 5 each to receive drinking water supplemented with 20 mM 2-fluorofucose or regular drinking water. Mice were sacrificed when tumors reached about 1000 mm^3.

[3] = test system: Caki-1 renal cell carcinoma; test: Xenograft of pre-treated Caki-1 cells (Example 7, Study 2); type: in vivo, female nude mice; details: 20 mM in drinking water, not in first treatment period, observed in second
Procedure: as §1, §2

Question: How did the “fucosylation levels (average, treated animals)” value [1] turn out when `C[C@H](O)[C@@H](O)[C@@H](O)[C@H](F)C=O` [SGD-2083, 2-fluoro-2-deoxy fucose] was run?
Answer: The value was 7%.

Question: And the tumor growth [2]?
Answer: Its tumor growth is “No change in tumor growth”.

Question: What about the tumor growth [3] of the same compound?
Answer: The tumor growth was “tumor growth inhibition in vivo was seen”.

From patent US9504702B2, “Methods of inhibition of protein fucosylation in vivo using fucose analogs” (Seattle Genetics, Inc., priority 2010, dated 2016)
